Data: patent publication US6506772B1, “Substituted [1,2,4]triazolo[1,5a]pyridine derivatives with activity as adenosine receptor ligands” (Hoffmann-La Roche Inc., priority 2000, dated 2003)

Columns and labels:
[1] = biological target: T1, human adenosine A2A receptor (Homo sapiens, UniProt P29274); assay: Human adenosine A2A receptor [3H]-SCH-58261 binding assay; conditions: for Ki: affinity to human adenosine A2A receptor, read-out: Ki HA2A; for selectivity (A1/A2a): calculated ratio of the affinity to the HA1 receptor to the HA2a receptor
T1 construct: expressed in transfected cells; host or cells: CHO cells, Semliki Forest virus expression system; membrane preparation
T1 sequence (P29274 whole entry): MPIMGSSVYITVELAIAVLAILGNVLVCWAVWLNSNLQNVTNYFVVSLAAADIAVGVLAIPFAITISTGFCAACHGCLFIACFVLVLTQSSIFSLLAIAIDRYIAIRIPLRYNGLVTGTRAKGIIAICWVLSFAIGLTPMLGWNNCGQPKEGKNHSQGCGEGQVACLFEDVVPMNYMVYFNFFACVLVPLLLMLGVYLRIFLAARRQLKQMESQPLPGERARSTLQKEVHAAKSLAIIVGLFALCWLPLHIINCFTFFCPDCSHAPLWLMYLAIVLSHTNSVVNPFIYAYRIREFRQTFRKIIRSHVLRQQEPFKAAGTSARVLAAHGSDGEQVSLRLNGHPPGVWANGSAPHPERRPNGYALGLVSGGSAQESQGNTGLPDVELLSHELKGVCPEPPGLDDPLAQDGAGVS

HA1 adenosine receptor = biological target: T2, HA1 adenosine receptor (Homo sapiens, UniProt P30542); assay: Human adenosine A1 receptor affinity (Ki hA1); type: binding; conditions: affinity to human adenosine A1 receptor
T2 sequence (P30542 1-326): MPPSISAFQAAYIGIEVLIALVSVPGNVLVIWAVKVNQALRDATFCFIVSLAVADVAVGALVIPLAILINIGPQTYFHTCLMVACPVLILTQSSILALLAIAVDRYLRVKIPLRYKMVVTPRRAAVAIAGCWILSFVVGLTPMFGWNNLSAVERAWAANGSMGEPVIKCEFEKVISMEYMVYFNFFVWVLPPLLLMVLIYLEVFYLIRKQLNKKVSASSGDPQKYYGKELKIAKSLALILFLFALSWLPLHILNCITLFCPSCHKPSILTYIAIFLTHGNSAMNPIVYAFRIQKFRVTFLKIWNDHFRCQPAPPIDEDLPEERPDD

Ki [1] [nM] | selectivity (A1/A2a) [1] | Ki (HA1 adenosine receptor) [nM] | Compound
66.6 | 21.0 | 1400 | CCN(C(=O)c1cc(N)n2nc(-c3nccs3)nc2c1)C(C)C [Example 288, 5-Amino-2-thiazol-2-yl-[1,2,4]triazolo[1,5-a]pyridine-7-carboxylic acid ethyl-isopropyl-amide]
55.3 | 42.0 | 2320 | Nc1cc(C(=O)N2CCSC2)cc2nc(-c3nccs3)nn12 [Example 289, (5-Amino-2-thiazol-2-yl-[1,2,4]triazolo[1,5-a]pyridin-7-yl)-thiazolidin-3-yl-methanone]
57.6 | 22.2 | 1280 | C=CCN(CC=C)C(=O)c1cc(N)n2nc(-c3nccs3)nc2c1 [Example 290, 5-Amino-2-thiazol-2-yl-[1,2,4]triazolo[1,5-a]pyridine-7-carboxylic acid diallylamide]
89.5 | 17.2 | 1540 | CCCCN(CC)C(=O)c1cc(N)n2nc(-c3nccs3)nc2c1 [Example 291, 5-Amino-2-thiazol-2-yl-[1,2,4]triazolo[1,5-a]pyridine-7-carboxylic acid butyl-ethyl-amide]
108 | 13.9 | 1510 | CCCCCN(C)C(=O)c1cc(N)n2nc(-c3nccs3)nc2c1 [Example 292, 5-Amino-2-thiazol-2-yl-[1,2,4]triazolo[1,5-a]pyridine-7-carboxylic acid methyl-pentyl-amide]
24.1 | 21.9 | 528 | CN(C)C(=O)c1cc(N)n2nc(-c3ccc(Br)o3)nc2c1 [Example 293, 5-Amino-2-(5-bromo-furan-2-yl)-[1,2,4]triazolo[1,5-a]pyridine-7-carboxylic acid dimethylamide]
4.1 | 35.0 | 143 | Nc1cc(C(=O)N2CC=CCC2)cc2nc(-c3ccc(Br)o3)nn12 [Example 294, [5-Amino-2-(5-bromo-furan-2-yl)-[1,2,4]triazolo[1,5-a]pyridin-7-yl]-(3,6-dihydro-2H-pyridin-1-yl)-methanone]
1.7 | 31.0 | 52.7 | Nc1cc(C(=O)N2CCCCCC2)cc2nc(-c3ccc(Br)o3)nn12 [Example 296]
2.2 | 42.7 | 94 | CCCN(CC1CC1)C(=O)c1cc(N)n2nc(-c3ccc(Br)o3)nc2c1 [Example 298, 5-Amino-2-(5-bromo-furan-2-yl)-[1,2,4]triazolo[1,5-a]pyridine-7-carboxylic acid cyclopropylmethyl-propyl-amide]
123 | 13.0 | 1600 | CCN1CCN(C(=O)c2cc(N)n3nc(-c4ccc(Br)o4)nc3c2)CC1 [Example 299, [5-Amino-2-(5-bromo-furan-2-yl)-[1,2,4]triazolo[1,5-a]pyridin-7-yl]-(4-ethyl-piperazin-1-yl)-methanone]
74.7 | 5.2 | 385 | NC(=O)C1CCN(C(=O)c2cc(N)n3nc(-c4ccc(Br)o4)nc3c2)CC1 [Example 300, 1-[5-Amino-2-(5-bromo-furan-2-yl)-[1,2,4]triazolo[1,5-a]pyridine-7-carbonyl]-piperidine-4-carboxylic acid amide]
62.1 | 30.5 | 1900 | CC1CCC(C)N1C(=O)c1cc(N)n2nc(-c3nccs3)nc2c1 (stereo not drawn) [Example 301]
104 | 19.4 | 2020 | CC1C=CC(C)N1C(=O)c1cc(N)n2nc(-c3nccs3)nc2c1 (stereo not drawn) [Example 302]
149 | 8.7 | 1300 | CC1CCCC(C)N1C(=O)c1cc(N)n2nc(-c3ccc(Br)o3)nc2c1 (stereo not drawn) [Example 303, [5-Amino-2-(5-bromo-furan-2-yl)-[1,2,4]triazolo[1,5-a]pyridin-7-yl]-(2,6-dimethyl-piperidin-1-yl)-methanone]
9.3 | 41.0 | 382 | CC1CN(C(=O)c2cc(N)n3nc(-c4ccc(Br)o4)nc3c2)CC(C)O1 (stereo not drawn) [Example 304, [5-Amino-2-(5-bromo-furan-2-yl)-[1,2,4]triazolo[1,5-a]pyridin-7-yl]-(2,6-dimethyl-morpholin-4-yl)-methanone]
5.2 | 26.8 | 139 | COCCN(CCOC)C(=O)c1cc(N)n2nc(-c3ccc(Br)o3)nc2c1 [Example 305, 5-Amino-2-(5-bromo-furan-2-yl)-[1,2,4]triazolo[1,5-a]pyridine-7-carboxylic acid bis-(2-methoxy-ethyl)-amide]

Ki [1] [nM] | selectivity (A1/A2a) [1] | Ki (HA1 adenosine receptor) [nM] | Compound
1.7 | 12.5 | 21.2 | CCN(Cc1ccccc1)C(=O)c1cc(N)n2nc(-c3ccc(Br)o3)nc2c1 [Example 307, 5-Amino-2-(5-bromo-furan-2-yl)-[1,2,4]triazolo[1,5-a]pyridine-7-carboxylic acid benzyl-ethyl-amide]
9.8 | 47.2 | 463 | CN(CCc1ccccn1)C(=O)c1cc(N)n2nc(-c3ccc(Br)o3)nc2c1 [Example 308, 5-Amino-2-(5-bromo-furan-2-yl)-[1,2,4]triazolo[1,5-a]pyridine-7-carboxylic acid methyl-(2-pyridin-2-yl-ethyl)-amide]
49.5 | 9.9 | 488 | CCN(CC)CCN(CC)C(=O)c1cc(N)n2nc(-c3ccc(Br)o3)nc2c1 [Example 309, 5-Amino-2-(5-bromo-furan-2-yl)-[1,2,4]triazolo[1,5-a]pyridine-7-carboxylic acid (2-diethylamino-ethyl)-ethyl-amide]
148 | 2.1 | 314 | Nc1cc(C(=O)N2CCN(Cc3ccccc3)CC2)cc2nc(-c3ccc(Br)o3)nn12 [Example 310, [5-Amino-2-(5-bromo-furan-2-yl)-[1,2,4]triazolo[1,5-a]pyridin-7-yl]-(4-benzyl-piperazin-1-yl)-methanone]
25.8 | 22.3 | 577 | Nc1cc(C(=O)N(CC(F)(F)F)CC(F)(F)F)cc2nc(-c3ccc(Br)o3)nn12 [Example 311, 5-Amino-2-(5-bromo-furan-2-yl)-[1,2,4]triazolo[1,5-a]pyridine-7-carboxylic acid bis-(2,2,2-trifluoro-ethyl)-amide]
21.8 | 10.4 | 227 | Nc1cc(C(=O)N2CC=C(c3ccccc3)CC2)cc2nc(-c3ccc(Br)o3)nn12 [Example 312, [5-Amino-2-(5-bromo-furan-2-yl)-[1,2,4]triazolo[1,5-a]pyridin-7-yl]-(4-phenyl-3,6-dihydro-2H-pyridin-1-yl)-methanone]
1.2 | 14.8 | 17.8 | Nc1cc(C(=O)N(Cc2ccccc2)Cc2ccccc2)cc2nc(-c3ccc(Br)o3)nn12 [Example 313, 5-Amino-2-(5-bromo-furan-2-yl)-[1,2,4]triazolo[1,5-a]pyridine-7-carboxylic acid dibenzylamide]
1.2 | 49.3 | 59.1 | CCN(Cc1ccncc1)C(=O)c1cc(N)n2nc(-c3ccc(Br)o3)nc2c1 [Example 314, 5-Amino-2-(5-bromo-furan-2-yl)-[1,2,4]triazolo[1,5-a]pyridine-7-carboxylic acid ethyl-pyridin-4-ylmethyl-amide]
97.5 | 20.4 | 1990 | Nc1cc(C(=O)N2CC=CCC2)cc2nc(-c3nccs3)nn12 [Example 315, (5-Amino-2-thiazol-2-yl-[1,2,4]triazolo[1,5-a]pyridin-7-yl)-(3,6-dihydro-2H-pyridin-1-yl)-methanone]
72.3 | 30.3 | 2190 | CC1CCCN(C(=O)c2cc(N)n3nc(-c4nccs4)nc3c2)C1 (stereo not drawn) [Example 316, (5-Amino-2-thiazol-2-yl-[1,2,4]triazolo[1,5-a]pyridin-7-yl)-(3,methyl-piperidin-1-yl)-methanone]
34.5 | 33.6 | 1160 | Nc1cc(C(=O)N2CCCCCC2)cc2nc(-c3nccs3)nn12 [Example 317, (5-Amino-2-thiazol-2-yl-[1,2,4]triazolo[1,5-a]pyridin-7-yl)-azepan-1-yl-methanone]
87 | 14.3 | 1240 | CCCN(CC1CC1)C(=O)c1cc(N)n2nc(-c3nccs3)nc2c1 [Example 319, 5-Amino-2-thiazol-2-yl-[1,2,4]triazolo[1,5-a]pyridine-7-carboxylic acid cyclopropylmethyl-propyl-amide]
82.7 | 7.4 | 614 | CC1CCCC(C)N1C(=O)c1cc(N)n2nc(-c3nccs3)nc2c1 (stereo not drawn) [Example 320]
127 | 9.6 | 1220 | CN(CCc1ccccc1)C(=O)c1cc(N)n2nc(-c3nccs3)nc2c1 [Example 322, 5-Amino-2-thiazol-2-yl-[1,2,4]triazolo[1,5-a]pyridine-7-carboxylic acid methyl-phenethyl-amide]
25.2 | 13.6 | 342 | CCN(Cc1ccccc1)C(=O)c1cc(N)n2nc(-c3nccs3)nc2c1 [Example 323, 5-Amino-2-thiazol-2-yl-[1,2,4]triazolo[1,5-a]pyridine-7-carboxylic acid benzyl-ethyl-amide]
